Reference: ChEMBL document CHEMBL4483862, “Open-source discovery of chemical leads for next-generation chemoprotective antimalarials” (2018)

Tested on: Plasmodium berghei
Experiment: Luciferase/luciferin-expressing antifolate-resistant parasites were used to infect a culture of HepG2 cells that were pre-incubated with compounds. Infected hepatocytes emit light due to the luciferase reaction. Assay results are presented as the percent inhibition of light emission compared to control. […]
Type: functional
Conditions: sporozoite; for IC90: read-out: LUCIFERASE INFECTION ASSAY - IC90

O=[N+]([O-])c1ccc(Oc2ccc(F)cc2Br)c2ccncc12 gave an IC50 (HEPG2TOX_HILL_SLOPE 8.14, 7.27, HEPG2TOX_R_SQUARED 0.719, 0.841, PBLUC_HILL_SLOPE 4.57, PBLUC_R_SQUARED 0.39, read-out: LUCIFERASE INFECTION ASSAY - IC50) of 5.65 µM and an IC90 of 9.13 µM.
Compound OCc1ccc(-c2ccc3ncc(-c4cccnc4)n3n2)cc1 has an IC50 (HEPG2TOX_HILL_SLOPE 8.03, HEPG2TOX_R_SQUARED 0.878, PBLUC_HILL_SLOPE 5.07, PBLUC_R_SQUARED 0.745, read-out: LUCIFERASE INFECTION ASSAY - IC50) of 1.24 µM and an IC90 of 1.91 µM.
With CN1CCN(c2ccc(-c3cn4c(-c5cccc(O)c5)cnc4cn3)cc2)CC1 the IC50 (HEPG2TOX_HILL_SLOPE 8.09, HEPG2TOX_R_SQUARED 0.0909, PBLUC_HILL_SLOPE 1.65, PBLUC_R_SQUARED 0.318, read-out: LUCIFERASE INFECTION ASSAY - IC50) was 7.19 µM and the IC90 was over 8.56 µM.
COc1cc(/C=C(/C(=O)c2cccc(Cl)c2)c2nc3ccccc3[nH]2)ccc1OCc1ccccc1 gave an IC50 (HEPG2TOX_HILL_SLOPE 8.02, HEPG2TOX_R_SQUARED 0.115, read-out: LUCIFERASE INFECTION ASSAY - IC50) of over 10 µM and an IC90 of over 10 µM.
Compound Cc1ccc(S(=O)(=O)Oc2ccccc2/C=N/N=C2\NC(=O)CS2)cc1Cl has an IC50 (HEPG2TOX_HILL_SLOPE 8.05, HEPG2TOX_R_SQUARED 0.112, PBLUC_HILL_SLOPE 0.841, PBLUC_R_SQUARED 0.28, read-out: LUCIFERASE INFECTION ASSAY - IC50) of over 10 µM and an IC90 of over 10 µM.
CC(C)c1ccc(Nc2nccc3nc(-c4cccc(C(F)(F)F)c4)[nH]c23)cc1 was tested, and the IC50 (HEPG2TOX_HILL_SLOPE 8.02, HEPG2TOX_R_SQUARED 0.493, PBLUC_HILL_SLOPE 1.32, PBLUC_R_SQUARED 0.475, read-out: LUCIFERASE INFECTION ASSAY - IC50) was 4.04 µM and the IC90 was over 10 µM.
Work on CCC(C)(C)c1ccc(Oc2ccc(NC(=O)CN3CCN(c4ccccc4O)CC3)cc2)cc1 yielded an IC50 (HEPG2TOX_HILL_SLOPE 8.11, HEPG2TOX_R_SQUARED 0.399, read-out: LUCIFERASE INFECTION ASSAY - IC50) of over 10 µM and an IC90 of over 10 µM.
Compound CCCn1c(NC(=O)c2c(C)nn(Cc3ccccc3)c2Cl)nc2ccccc21 has an IC50 (HEPG2TOX_HILL_SLOPE 8.06, 7.61, HEPG2TOX_R_SQUARED 0.217, 0.871, PBLUC_HILL_SLOPE 3.35, PBLUC_R_SQUARED 0.605, read-out: LUCIFERASE INFECTION ASSAY - IC50) of 5.57 µM and an IC90 of over 10 µM.
In the case of Cn1cc(C(=O)c2ccccc2O)cc1-c1nc2ccccc2[nH]1, the IC50 (HEPG2TOX_HILL_SLOPE 8.08, HEPG2TOX_R_SQUARED 0.741, PBLUC_HILL_SLOPE 7.01, PBLUC_R_SQUARED 0.754, read-out: LUCIFERASE INFECTION ASSAY - IC50) is reported as 3.61 µM and the IC90 is reported as 4.94 µM.
In the case of O=C(/C=C/c1ccc(-n2nncc2-c2ccccc2)cc1)c1ccccc1, the IC50 (HEPG2TOX_HILL_SLOPE 8.1, HEPG2TOX_R_SQUARED 0.474, PBLUC_HILL_SLOPE 4.46, PBLUC_R_SQUARED 0.811, read-out: LUCIFERASE INFECTION ASSAY - IC50) is reported as 6.74 µM and the IC90 is reported as over 10 µM.
Compound CCN1C(=O)N(CCC(C)C)C2(CCN(Cc3ccc4c(c3)Cc3ccccc3-4)CC2)C1=O has an IC50 (HEPG2TOX_HILL_SLOPE 8.09, HEPG2TOX_R_SQUARED 0.945, PBLUC_HILL_SLOPE 9.13, PBLUC_R_SQUARED 0.509, read-out: LUCIFERASE INFECTION ASSAY - IC50) of 5.93 µM and an IC90 of over 7.41 µM.
COc1ccc(/C=C(/C(=O)Nc2ccc(Cl)cc2)c2nc3ccccc3s2)cc1O gave an IC50 (HEPG2TOX_HILL_SLOPE 8.13, HEPG2TOX_R_SQUARED 0.744, PBLUC_HILL_SLOPE 10.1, PBLUC_R_SQUARED 0.615, read-out: LUCIFERASE INFECTION ASSAY - IC50) of 3.45 µM and an IC90 of 4.29 µM.
In the case of CCc1ccc(-c2noc(CN3CCN(C(=O)c4ccccc4)CC3)n2)cc1, the IC50 (HEPG2TOX_HILL_SLOPE 8.06, HEPG2TOX_R_SQUARED 0.791, read-out: LUCIFERASE INFECTION ASSAY - IC50) is reported as over 10 µM and the IC90 is reported as over 10 µM.
With CCn1c(NC(=O)c2[nH]nc3ccccc23)nc2ccccc21 the IC50 (HEPG2TOX_HILL_SLOPE 8.17, HEPG2TOX_R_SQUARED 0.11, PBLUC_HILL_SLOPE 5.04, PBLUC_R_SQUARED 0.686, read-out: LUCIFERASE INFECTION ASSAY - IC50) was 7.76 µM and the IC90 was over 10 µM.
In the case of O=C(c1ccsc1)N1CCc2nc(NCc3cccc(Oc4ccccc4)c3)ncc2C1, the IC50 (HEPG2TOX_HILL_SLOPE 8.11, HEPG2TOX_R_SQUARED 0.885, read-out: LUCIFERASE INFECTION ASSAY - IC50) is reported as over 7.46 µM and the IC90 is reported as over 7.46 µM.
For NC(=S)COc1cc(Cl)cc(Cl)c1, the IC50 (HEPG2TOX_HILL_SLOPE 8.05, HEPG2TOX_R_SQUARED 0.893, PBLUC_HILL_SLOPE 16, PBLUC_R_SQUARED 0.105, read-out: LUCIFERASE INFECTION ASSAY - IC50) was 13.4 µM and the IC90 was over 14 µM.
CCOC(=O)NC1=C/C(=N\S(=O)(=O)c2ccc(C)cc2)c2ccccc2C1=O gave an IC50 (HEPG2TOX_HILL_SLOPE 8.17, HEPG2TOX_R_SQUARED 0.938, PBLUC_HILL_SLOPE 4.13, PBLUC_R_SQUARED 0.0669, read-out: LUCIFERASE INFECTION ASSAY - IC50) of over 10 µM and an IC90 of over 10 µM.
Compound Cc1ccc2nc(NC(=O)c3ccccc3C(F)(F)F)c(C(=O)NCC(C)C)n2c1 has an IC50 (HEPG2TOX_HILL_SLOPE 8.05, HEPG2TOX_R_SQUARED 0.91, PBLUC_HILL_SLOPE 18.7, PBLUC_R_SQUARED 0.209, read-out: LUCIFERASE INFECTION ASSAY - IC50) of 6.99 µM and an IC90 of 7.86 µM.
For CC(C)OCc1cccc(NC(=O)Nc2cccc(Cl)c2)c1, the IC50 (HEPG2TOX_HILL_SLOPE 8.19, HEPG2TOX_R_SQUARED 0.0219, PBLUC_HILL_SLOPE 262, PBLUC_R_SQUARED 0.512, read-out: LUCIFERASE INFECTION ASSAY - IC50) was 1.78 µM and the IC90 was 1.8 µM.
O=C(Nc1cccc(C(F)(F)F)c1)Nc1ccc2nc(-c3ccoc3)nn2c1 gave an IC50 (HEPG2TOX_HILL_SLOPE 8.17, HEPG2TOX_R_SQUARED 0.681, PBLUC_HILL_SLOPE 272, PBLUC_R_SQUARED 0.378, read-out: LUCIFERASE INFECTION ASSAY - IC50) of 5.27 µM and an IC90 of 5.31 µM.
Compound CS(=O)(=O)c1ccc(N2CCN(c3ccnc4cc(Cl)ccc34)CC2)c([N+](=O)[O-])c1 has an IC50 (HEPG2TOX_HILL_SLOPE 8.04, HEPG2TOX_R_SQUARED 0.676, PBLUC_HILL_SLOPE 3.39, PBLUC_R_SQUARED 0.378, read-out: LUCIFERASE INFECTION ASSAY - IC50) of 4.61 µM and an IC90 of 8.81 µM.
In the case of COc1ccc(Nc2cc3[nH]c(-c4cccc(C(F)(F)F)c4)cc3cn2)c(C)c1, the IC50 (HEPG2TOX_HILL_SLOPE 8.02, HEPG2TOX_R_SQUARED 0.0629, PBLUC_HILL_SLOPE 11.9, PBLUC_R_SQUARED 0.386, read-out: LUCIFERASE INFECTION ASSAY - IC50) is reported as 8.34 µM and the IC90 is reported as over 10 µM.
O=C(NC1CCSc2ccccc21)c1cnn(Cc2ccccc2Cl)c1 (configuration not stated) gave an IC50 (HEPG2TOX_HILL_SLOPE 8.01, HEPG2TOX_R_SQUARED 0.477, PBLUC_HILL_SLOPE 11.5, PBLUC_R_SQUARED 0.343, read-out: LUCIFERASE INFECTION ASSAY - IC50) of 9.41 µM and an IC90 of over 10 µM.
COc1cc(C2(O)CS/C(=C(/C#N)C(=O)Nc3ccc(Cl)cc3)N2c2ccccc2)cc(OC)c1OC (configuration not stated) gave an IC50 (HEPG2TOX_HILL_SLOPE 8.02, HEPG2TOX_R_SQUARED 0.929, PBLUC_HILL_SLOPE 8.63, PBLUC_R_SQUARED 0.488, read-out: LUCIFERASE INFECTION ASSAY - IC50) of 8.71 µM and an IC90 of over 10 µM.
CNC(=O)c1ccc(/C=C/C(=O)c2ccc3c4c(cccc24)CC3)cc1 gave an IC50 (HEPG2TOX_HILL_SLOPE 8.19, HEPG2TOX_R_SQUARED 0.612, PBLUC_HILL_SLOPE 20.8, PBLUC_R_SQUARED 0.622, read-out: LUCIFERASE INFECTION ASSAY - IC50) of 8.38 µM and an IC90 of 9.31 µM.
Work on O=C(CSCc1nc(-c2ccc(Cl)cc2)cs1)NNS(=O)(=O)c1ccc(Cl)cc1 yielded an IC50 (HEPG2TOX_HILL_SLOPE 8.04, HEPG2TOX_R_SQUARED 0.486, read-out: LUCIFERASE INFECTION ASSAY - IC50) of over 6.76 µM and an IC90 of over 6.76 µM.
In the case of O=C(CSc1ccc(S(=O)(=O)N2CCCCCC2)cn1)N1CCN(c2ccccc2F)CC1, the IC50 (HEPG2TOX_HILL_SLOPE 8.02, HEPG2TOX_R_SQUARED 0.252, PBLUC_HILL_SLOPE 16.3, 0.0846, PBLUC_R_SQUARED 0.285, 0.0684, read-out: LUCIFERASE INFECTION ASSAY - IC50) is reported as 9.76 µM and the IC90 is reported as over 10 µM.
For Cc1ccc(-c2csc(Nc3ccccn3)n2)c(C)c1, the IC50 (HEPG2TOX_HILL_SLOPE 8.07, HEPG2TOX_R_SQUARED 0.196, PBLUC_HILL_SLOPE 0.693, PBLUC_R_SQUARED 0.516, read-out: LUCIFERASE INFECTION ASSAY - IC50) was 0.441 µM and the IC90 was over 10 µM.
With CCc1cc(OCCCCCCN2CCC(C)CC2)ccc1Cl the IC50 (HEPG2TOX_HILL_SLOPE 8.01, HEPG2TOX_R_SQUARED 0.5, PBLUC_HILL_SLOPE 3.89, PBLUC_R_SQUARED 0.522, read-out: LUCIFERASE INFECTION ASSAY - IC50) was 4.49 µM and the IC90 was 7.91 µM.
Cc1c(-c2ccccc2)oc2c(C(=O)N(Cc3ccccc3Cl)S(=O)(=O)c3cccc(C(F)(F)F)c3)cccc2c1=O showed an IC50 (HEPG2TOX_HILL_SLOPE 8.04, HEPG2TOX_R_SQUARED 0.64, PBLUC_HILL_SLOPE 8.59, PBLUC_R_SQUARED 0.6, read-out: LUCIFERASE INFECTION ASSAY - IC50) of 7.82 µM and an IC90 of over 10 µM.
In the case of O=C(Nc1ccc(Cl)c(C(F)(F)F)c1)Nc1ccc2nc(-c3ccsc3)nn2c1, the IC50 (HEPG2TOX_HILL_SLOPE 8.17, HEPG2TOX_R_SQUARED 0.277, PBLUC_HILL_SLOPE 11.1, PBLUC_R_SQUARED 0.655, read-out: LUCIFERASE INFECTION ASSAY - IC50) is reported as 7.59 µM and the IC90 is reported as 9.25 µM.
